Experimental data taken from patent US20250075056A1, “IMIDAZOLYSIS OF POLYESTERS AND POLYURETHANES” (The Board of Trustees of The University of Alabama, priority 2023, published 2025).
Like-named read-outs stand apart in the source and are kept apart here.

Assays:
[1] = imidazole reagent, literature refs 58-60, cited from earlier work
[2] = Solubility of TBIs in common solvents; type: physicochemical
[3] = organic solvent or mixture, solvent Ethanol, read-out: Solubility in Ethanol
[4] = solvent DI Water, read-out: Solubility in DI Water

| solubility [2, 3] [µg/mL] | solubility [2, 4] [µg/mL] | Compound | pKa [1] | also measured |
| --- | --- | --- | --- | --- |
| < 1000 | < 1000 | O=C(c1ccc(C(=O)n2ccnc2-c2ccccc2)cc1)n1ccnc1-c1ccccc1 [8b] | – | Solubility in typical aromatic organic solvents ([2]; e.g., toluene, xylene): moderately soluble |
| < 1000 | > 1000 | CCc1nc(C)cn1C(=O)c1ccc(C(=O)n2cc(C)nc2CC)cc1 [7b] | – | – |

More lines, now with the values behind:

| Compound | solubility [2, 3] [µg/mL] | solubility [2, 4] [µg/mL] | pKa [1] | also measured |
| --- | --- | --- | --- | --- |
| Cc1c[nH]cn1 [4a, 4-Methyl imidazole] | – | – | 7.69-7.80 | – |
| CCc1nccn1C(=O)c1ccc(C(=O)n2ccnc2CC)cc1 [3b] | > 1000 | > 1000 | – | – |
| CCc1nc(C)c[nH]1 [7a, 2-Ethyl-4-methyl imidazole] | – | – | 8.68 | – |
| CCc1ncc[nH]1 [3a, 2-Ethyl imidazole] | – | – | 7.99-8 | – |
| Imidazole [1a] | – | – | ~7 | – |
| CC(C)c1nccn1C(=O)c1ccc(C(=O)n2ccnc2C(C)C)cc1 [5b] | < 1000 | < 1000 | – | – |
| Cc1cn(C(=O)c2ccc(C(=O)n3cnc(C)c3)cc2)cn1 [4b] | > 1000 | > 1000 | – | – |
| CC(C)c1ncc[nH]1 [5a, 2-Isopropyl imidazole] | – | – | 7.97 | – |
| Cc1nccn1C(=O)c1ccc(C(=O)n2ccnc2C)cc1 [2b] | > 1000 | > 1000 | – | – |
| c1ccc(-c2ncc[nH]2)cc1 [8a, 2-Phenyl imidazole] | – | – | 6.44 | – |
| O=C(c1ccc(C(=O)n2ccnc2)cc1)n1ccnc1 [1b, 1,1′-(1,4-Phenylene)bis[1-(1H-imidazol-1-yl)methanone]] | > 1000 | > 1000 | – | Solubility on contact with H2O ([2]; DI H2O): solubilize |
| Cc1nc(C)n(C(=O)c2ccc(C(=O)n3c(C)nc(C)c3C)cc2)c1C [6b] | > 1000 | > 1000 | – | – |
| Cc1nc(C)c(C)[nH]1 [6a, 2,4,5-Trimethyl imidazole] | – | – | 8.92 | – |
| Cc1ncc[nH]1 [2a, 2-Methyl imidazole] | – | – | 7.85-8.10 | pKa ([1]; listed as 2-methylimidazole): 8.1 |
